Laboratory results published in US9023821B2, “Use of MicroRNA for treating diseases associated with a dysfunction of the cilia in multiciliated epithelial cells” (Centre National de la Recherche Scientifique, priority 2009, dated 2015).

Tests used:
[1] = tested on: human airway epithelial cells (HAECs); assay: High-throughput sequencing (HTS) of miRNAs at four stages of differentiation of HAECs; details: for Modulation (ratio of the level of intensity of expression in log2 in two stages of differentiation) measured by high-throughput sequencing, D7 − D0 / Modulation (ratio of the level of intensity of expression in log2 in two stages of differentiation) measured by high-throughput sequencing, FC − D7 / Modulation (ratio of the level of intensity of expression in log2 in two stages of differentiation) measured by high-throughput sequencing, WD − D0 / Modulation (ratio of the level of intensity of expression in log2 in two stages of differentiation) measured by high-throughput sequencing, WD − FC / Level of intensity of expression in log2 measured by high-throughput sequencing, D0 / Level of intensity of expression in log2 measured by high-throughput sequencing, D7 / Level of intensity of expression in log2 measured by high-throughput sequencing, FC / Level of intensity of expression in log2 measured by high-throughput sequencing, WD: Table VI; for Level of intensity of expression in log2 At the differentiated stage (WD) measured in HTS: healthy human airway epithelial tissue; for Level of intensity of expression in log2 measured by high-throughput sequencing, D0: stage D0; for Level of intensity of expression in log2 measured by high-throughput sequencing, D7: stage D7; for Level of intensity of expression in log2 measured by high-throughput sequencing, FC: stage FC; for Level of intensity of expression in log2 At the differentiated stage (WD) measured in HTS / Level of intensity of expression in log2 measured by high-throughput sequencing, WD: stage WD
In short: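 Reads per 5p and 3p strand scaled to 10^6 sequences, then to percentage abundance; linear model plus empirical Bayes normalization. Retained miRNAs exceeded 1% of total in at least one condition, with |Log2 Ratio| below 0.5 and adjusted P-value below 0.05.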

[2] = tested on: human airway epithelial cells (HAECs); assay: Agilent miRNA chips, miRNA expression at four stages of differentiation of HAECs; details: for Modulation (ratio of the level of intensity of expression in log2 in two stages of differentiation) measured with the Agilent chips, D7 − D0 / Modulation (ratio of the level of intensity of expression in log2 in two stages of differentiation) measured with the Agilent chips, FC − D7 / Modulation (ratio of the level of intensity of expression in log2 in two stages of differentiation) measured with the Agilent chips, WD − D0 / Modulation (ratio of the level of intensity of expression in log2 in two stages of differentiation) measured with the Agilent chips, WD − FC / Level of intensity of expression in log2 measured with the Agilent chips, D0 / Level of intensity of expression in log2 measured with the Agilent chips, D7 / Level of intensity of expression in log2 measured with the Agilent chips, FC / Level of intensity of expression in log2 measured with the Agilent chips, WD: Table VI; for Modulation (ratio of the level of intensity of expression in log2 at two stages of differentiation), FC − D7 / Modulation (ratio of the level of intensity of expression in log2 at two stages of differentiation), WD − FC: Agilent miRNA chips, Table V; for Level of intensity of expression in log2 measured with the Agilent chips, D0: stage D0; for Level of intensity of expression in log2 measured with the Agilent chips, D7: stage D7; for Level of intensity of expression in log2 measured with the Agilent chips, FC: stage FC; for Level of intensity of expression in log2 measured with the Agilent chips, WD: stage WD
In short: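 Microarray v2 (866 human + 89 viral miRNAs; miRBase v.12.0). Input: RNA from the same donors as sequencing. Labelling/hybridization per kit protocol. Profiles cross-checked vs sequencing.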

[3] = tested on: basal cells and pyramidal cells of the airway epithelium; assay: miRNA expression in sorted basal cells versus pyramidal cells (ciliated + secretory), HTS and Agilent chips; parameters: species or system human; details: for Modulation of expression of the miRNAs in pyramidal cells (323(−)) relative to basal cells 323(+): HTS and Agilent chips; for Intensity of the level of expression in log2 in pyramidal cells (323(−)): pyramidal cells (ciliated + secretory)
In short: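 Nasal polyp or concha epithelial cells from 3 donors were stained with CD151-PE and anti-tissue factor-FITC for 20 min at 4° C, with DAPI excluding damaged cells. CD151+/TF+ basal and CD151−/TF− ciliated/secretory cells were FACS-sorted; total RNA miRNA profiles came from Agilent chips or high-throughput sequencing.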

Substance | Modulation (ratio of the level of intensity of expression in log2 in two stages of differentiation) measured by high-throughput sequencing, D7 − D0 [1] [log2] | Modulation (ratio of the level of intensity of expression in log2 in two stages of differentiation) measured by high-throughput sequencing, FC − D7 [1] [log2] | Modulation (ratio of the level of intensity of expression in log2 in two stages of differentiation) measured by high-throughput sequencing, WD − D0 [1] [log2] | Modulation (ratio of the level of intensity of expression in log2 in two stages of differentiation) measured by high-throughput sequencing, WD − FC [1] [log2] | Level of intensity of expression in log2 At the differentiated stage (WD) measured in HTS [1] [log2] | Level of intensity of expression in log2 measured by high-throughput sequencing, D0 [1] [log2] | Level of intensity of expression in log2 measured by high-throughput sequencing, D7 [1] [log2] | Level of intensity of expression in log2 measured by high-throughput sequencing, FC [1] [log2] | Level of intensity of expression in log2 measured by high-throughput sequencing, WD [1] [log2] | Modulation (ratio of the level of intensity of expression in log2 in two stages of differentiation) measured with the Agilent chips, D7 − D0 [2] [log2] | Modulation (ratio of the level of intensity of expression in log2 at two stages of differentiation), FC − D7 [2] [log2] | Modulation (ratio of the level of intensity of expression in log2 in two stages of differentiation) measured with the Agilent chips, FC − D7 [2] [log2] | Modulation (ratio of the level of intensity of expression in log2 in two stages of differentiation) measured with the Agilent chips, WD − D0 [2] [log2] | Modulation (ratio of the level of intensity of expression in log2 at two stages of differentiation), WD − FC [2] [log2] | Modulation (ratio of the level of intensity of expression in log2 in two stages of differentiation) measured with the Agilent chips, WD − FC [2] [log2] | Level of intensity of expression in log2 measured with the Agilent chips, D0 [2] [log2] | Level of intensity of expression in log2 measured with the Agilent chips, D7 [2] [log2] | Level of intensity of expression in log2 measured with the Agilent chips, FC [2] [log2] | Level of intensity of expression in log2 measured with the Agilent chips, WD [2] [log2] | Modulation of expression of the miRNAs in pyramidal cells (323(−)) relative to basal cells 323(+) [3] | also measured
hsa-miR-30b: human miRNA, SEQ ID No. 33 (UGUAAACAUCCUACACUCAGCU; expressed or natural sequence; listed as Homo sapiens) | 0.83 | −0.27 | 1.24 | 0.68 | 0.01 | 8.50 | 9.33 | 9.06 | 9.74 | 2.36 | 0.05 | 0.05 | 2.55 | 0.15 | 0.15 | 7.62 | 9.98 | 10.03 | 10.17 | −0.80 | Intensity of the level of expression in log2 in basal cells (323(+)) [3]: 8.76 log2; Intensity of the level of expression in log2 in pyramidal cells (323(−)) [3]: 7.96 log2
hsa-miR-374a: human miRNA, SEQ ID No. 42 (UUAUAAUACAACCUGAUAAGUG; expressed or natural sequence; listed as Homo sapiens) | −0.33 | 1.74 | 2.16 | 0.74 | 11.87 | 0.62 | 0.30 | 2.04 | 2.78 | 1.41 | −0.54 | −0.54 | 0.79 | −0.08 | −0.08 | 7.04 | 8.45 | 7.91 | 7.83 | −1.04 | Intensity of the level of expression in log2 in basal cells (323(+)) [3]: 4.26 log2; Intensity of the level of expression in log2 in pyramidal cells (323(−)) [3]: 3.22 log2
